Key:
human SS RBCs = experiment: Laser ektacytometry during controlled deoxygenation/reoxygenation (LORRCA Oxygenscan): POS, POR, elongation index; format: cell-based; settings: 1 hour
Excerpt: The LORRCA red blood cell analysis platform was used to obtain information on deformability (cell and cell membrane stability), including under an osmotic gradient (osmotic resistance). The platform also can provide data on aggregation tendency and kinetics and measure the relative oxygen pressure at the critical point when the red blood cells start to sickle. Here, RBC Osmotic Fragility (elongation index (EI) vs. osmolality at specific sheer), RBC Deformability (EI vs sheer at specific osmolality), and RBC Oxyscan Sickling Characteristics (EI vs pO2) were determined. See, for example, FIG. 5.
See FIG. 6 for a description of how EI is calculated. See FIG. 7 for an example calculation of Oxyscan analysis parameters. […] LORRCA determines POS as the pO2 corresponding to a 5% decrease in EImax. If the EI is not completely stable at high pO2 (i.e., the Oxyscan baseline is not level), POS is calculated to be artificially high. FIG. 9 is a graph showing an example point of sickling (POS) determination from “first derivative,” which is taken from the plot. A common method to process, the first derivative of a spectrum is the rate of change of absorbance with respect to wavelength.
(§1) FIG. 19A presents illustrative chromatograms (standards & samples).
(§2) 5-HMF-induced Hb modification was quantitated by HPLC (Waters™ e2695XE Alliance™, Swift WCX-PEEK); O2 dissociation curves (ODC) were measured in intact RBCs (HEMOX Analyzer); pO2's at the point of sickling (POS) and point of unsickling (POU) were determined during controlled Hb O2 unloading/loading, respectively (LORRCA Oxygenscan RR Mechatronics).
(§3) After either 1 hour or 3 hours, either or both oxygen dissociation curves (ODC) or laser ektacytometry was performed to measure either or both p50 and POS/POR. […] As for PK data, effect upon p50 and POS/POR appear to progress from 1 hour to 3 hours. […] See also the results in FIG. 23. CNP=carbon nanoparticle.

[1] = biological target: T1, Hb (HbS) in human SS RBCs (Homo sapiens, UniProt P69905); experiment: 5-HMF-induced Hb modification quantitated by cation exchange HPLC in RBCs from SCD patients; format: cell-based
T1 construct: endogenous in cells; host or cells: red blood cells from patients with sickle cell disease (human SS RBCs)
T1 sequence (P69905 2-142): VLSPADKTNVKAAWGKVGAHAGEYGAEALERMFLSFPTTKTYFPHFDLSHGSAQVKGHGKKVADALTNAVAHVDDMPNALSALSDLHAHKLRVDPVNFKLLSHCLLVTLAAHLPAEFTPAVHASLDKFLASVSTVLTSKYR
T1 sequence (P68871 with tags, fused parts or gaps E7V partner): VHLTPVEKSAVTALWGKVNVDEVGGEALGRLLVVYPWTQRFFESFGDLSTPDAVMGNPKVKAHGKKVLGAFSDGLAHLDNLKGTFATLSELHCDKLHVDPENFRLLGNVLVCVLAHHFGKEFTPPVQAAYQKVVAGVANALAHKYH
Protocol: HPLC was performed to detect binding of an allosteric effector to Hb.
as §1, §2
See data in FIG. 21A and FIG. 21B (control patients) and FIG. 21C and FIG. 21D (SCD patients).

[2] = biological target: T2, Hb (HbO2 affinity) in intact SRBCs (Homo sapiens, UniProt P69905); experiment: O2 dissociation curve / HbO2 affinity (p50) in intact SRBCs (HEMOX Analyzer); format: cell-based; settings: pH 7.4, 5 mM 5-HMF, 1 hour, intact SCD RBCs
T2 construct: endogenous in cells; host or cells: red blood cells from patients with sickle cell disease (human SS RBCs)
T2 sequence (P69905 2-142): as the sequence (P69905 2-142) above
T2 sequence (P68871 with tags, fused parts or gaps E7V partner): as the sequence (P68871 with tags, fused parts or gaps E7V partner) above
Protocol: Hemox analysis methods determine oxygen partial pressure and the degree of hemoglobin saturation with oxygen using a Clark oxygen electrode and spectrophotometry, respectively.
as §1, §2, §3

[3] = human trials; cited from earlier work
[4] = test system: RBCs from subjects without sickle cell disease; experiment: RBC lysis, blood from subjects without sickle cell disease; format: cell-based, human; settings: healthy blood, 1-hour incubation at 37° C.
Protocol: Blood samples (RBCs) from subjects without sickle cell disease were tested with compounds to determine whether the compounds have any impact on RBC physiology, including tests for lysis, LORRCA (deformability and osmotic fragility), and HEMOX (ODC (p50) and cooperativity (Hill number)) after a 1-hour incubation at 37° C. See FIG. 33 for results for HPLC analysis of Hb modification; FIG. 34 for results for % RBC lysis for control blood (combined); FIG. 35 for results as shown; FIG. 36 for results for RBC osmotic fragility; and FIG. 37 for p50 and Hill number results for the oxygen dissociation curve (ODC).

O=Cc1ccc(CO)o1 [Nanoparticle 5-HMF, 5-(hydroxymethyl)furfural]
POR decrease (human SS RBCs; 0 vs 5 mM 5-HMF): 45% | POS decrease (human SS RBCs; 0 vs 5 mM 5-HMF): 30% | pO2 at point of sickling (POS) (human SS RBCs; 5 mM 5-HMF, SCD RBCs): 39.8±11.6 Torr | 5-HMF induced Hb modification (maximal) ([1]; SCD RBCs, 20% Hct, 37° C., 1 hour, 5 mM 5-HMF): about 75% | relative efficacy for % 5-HMF adducted Hb (ranking high to low) ([1]; equimolar for 5-HMF (5 mM), 0.25-24 hours): (high to low): free CoNP, 5-HMF, LP, CD, LNP | ODC p50 [2]: 20.3±1.5 Torr | bioavailability [3]: low bioavailability | half-life [3]: ~1 h | RBC lysis versus PBS control [4]: no difference

Reference: patent publication US20260183420A1, “ACTIVATED NANOTHERAPY FOR SICKLE CELL DISEASE” (UNIVERSITY OF MARYLAND, BALTIMORE, priority 2022, published 2026)
